# Test results as given in US8877684B2, “Pesticidal composition comprising a synthetic compound useful as nodulation agent of leguminous plants and an insecticide compound” (Bayer CropScience AG, priority 2006, dated 2014).
# Columns and labels:
# Myzus persicae = Myzus persicae test: cabbage leaves infested with green peach aphid dipped into the preparation; type: in vivo; conditions: foliar, 96 h, leaf dip, after 4 d
# Experimental: (§1) The expected efficacy of a given combination of two compounds is calculated as follows (see Colby, S. R., “Calculating Synergistic and antagonistic Responses of Herbicide Combinations”, Weeds 15, pp. 20-22, 1967):
# (§2) • X is the efficacy expressed in % mortality of the untreated control for test compound A at a concentration of m ppm respectively m g/ha; • Y is the efficacy expressed in % mortality of the untreated control for test compound B at a concentration of n ppm respectively n g/ha; • E is the efficacy expressed in % mortality of the untreated control using the mixture of A and B at m and n ppm respectively m and n g/ha; then is
# (§3) If the observed insecticidal efficacy of the combination is higher than the one calculated as “E”, then the combination of the two compounds is more than additive, i.e., there is a synergistic effect.
# To produce a suitable preparation of active compound, 1 part by weight of active compound is mixed with the stated amount of solvent and emulsifier, and the concentrate is diluted with emulsifier-containing water to the desired concentration. Cabbage leaves (Brassica oleracea) which are heavily infested by the green peach aphid (Myzus persicae) are treated by being dipped into the preparation of the active compound of the desired concentration.
# (§4) After the specified period of time, the mortality in % is determined. […]
# Phaedon cochleariae = Phaedon cochleariae test: dipped cabbage leaves infested with mustard beetle larvae; type: in vivo; conditions: foliar, 96 h, leaf dip, after 4 d
# Experimental: as §1, §2, §3
# To produce a suitable preparation of active compound, 1 part by weight of active compound is mixed with the stated amount of solvent and emulsifier, and the concentrate is diluted with emulsifier-containing water to the desired concentration. Cabbage leaves (Brassica oleracea) are treated by being dipped into the preparation of the active compound of the desired concentration and are infested with larvae of the mustard beetle (Phaedon cochleariae) as long as the leaves are still moist.
# as §4
compound,measurement,setting,value
O=[N+]([O-])NC1=NCCN1Cc1ccc(Cl)nc1 [Imidacloprid],mortality at 0.16 ppm,Myzus persicae,10%
same,mortality at 20 ppm,Phaedon cochleariae,70%
